# Results from US10981902B2 (Merck Sharp & Dohme Corp., priority 2017, dated 2021).
# pEC50: −log10 of the molar value.
# Target: T1, human M4 muscarinic acetylcholine receptor (Homo sapiens, UniProt P08173)
# T1 construct: expressed in transfected cells; host or cells: CHO-K1
# T1 sequence (P08173 1-479): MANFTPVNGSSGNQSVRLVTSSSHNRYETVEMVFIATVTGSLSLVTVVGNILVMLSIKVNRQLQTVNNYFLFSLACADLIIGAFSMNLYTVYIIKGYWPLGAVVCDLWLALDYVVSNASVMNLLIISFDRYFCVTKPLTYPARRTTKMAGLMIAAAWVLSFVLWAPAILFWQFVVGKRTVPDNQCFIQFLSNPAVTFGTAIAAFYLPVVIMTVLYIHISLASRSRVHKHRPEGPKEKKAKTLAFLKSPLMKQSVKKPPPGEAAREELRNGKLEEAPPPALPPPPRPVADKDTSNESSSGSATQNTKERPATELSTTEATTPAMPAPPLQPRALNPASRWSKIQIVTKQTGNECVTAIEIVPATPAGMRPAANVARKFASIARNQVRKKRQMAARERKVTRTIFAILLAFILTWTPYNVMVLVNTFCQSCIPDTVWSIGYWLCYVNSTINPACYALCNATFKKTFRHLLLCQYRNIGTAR
# Test: human FLIPR-based M4 PAM assay (calcium mobilization, CHO-K1 cells with human M4 receptor and Gαqi5)
# Type: cell-based
# Details: inflection point (IP) of dose response curve, acetylcholine added at 20% of maximum response, read-out: M4 FLIPPR Hu IP
# Procedure, shortened: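 CHO-K1 cells stably expressing human M4 and Gαqi5, dye-loaded ~1 h at 37 °C, read on FLIPR Tetra. Test compound added at increasing concentrations 4 min before acetylcholine at an EC20 concentration, sometimes followed by an EC70 addition. Dose-response curves fit to a 4-parameter logistic; result is the curve inflection point.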
row,Structure (SMILES),pEC50
1,"Cc1cn2ccc(-c3nc(C#N)ccc3-c3cnc(CC(C)(C)F)o3)cc2n1 [Example 86, 5-(2-(2-fluoro-2-methylpropyl)oxazol-5-yl)-6-(2-methylimidazo [1,2-a]pyridin-7-yl) picolinonitrile]",7.00
2,"Cc1cn2ccc(-c3nc(C#N)ccc3-c3cnc(CC(F)C4CC4)o3)cc2n1 (stereo not shown) [Example 88, 5-(2-(2-cyclopropyl-2-fluoroethyl)oxazol-5-yl)-6-(2-methylimidazo [1,2-a]pyridin-7-yl)picolinonitrile]",7.20
3,"N#Cc1ccc(-c2cnc(CCC(F)(F)F)o2)c(-c2ccn3ccnc3c2)n1 [Example 67, 6-(imidazo[1,2-a]pyridin-7-yl)-5-(2-(3,3,3-trifluoropropyl)oxazol-5-yl)picolinonitrile]",6.87
4,"CC(C)(C)CCc1ncc(-c2ccc(C#N)nc2-c2ccc3cccnc3c2)o1 [Example 65, 5-(2-(3,3-dimethylbutyl)oxazol-5-yl)-6-(quinolin-7-yl)picolinonitrile]",7.02
5,"N#Cc1ccc(-c2cnc(CC(F)C3CC3)o2)c(-c2ccc3cccnc3c2)n1 (single isomer, unassigned) [Example 70, 5-(2-(2-cyclopropyl-2-fluoroethyl)oxazol-5-yl)-6-(quinolin-7-yl)picolinonitrile (single compound)]",7.22
6,"N#Cc1ccc(-c2cnc(CC(O)C3CC3)o2)c(-c2ccc3cccnc3c2)n1 (stereo not shown) [Example 68, 5-(2-(2-cyclopropyl-2-hydroxyethyl)oxazol-5-yl)-6-(quinolin-7-yl)picolinonitrile]",6.64
7,"CC(C)(C)Cc1ncc(-c2ccc(C#N)nc2-c2ccc3cccnc3c2)o1 [Example 11, 5-(2-neopentyl-oxazol-5-yl)-6-(quinolin-7-yl)-picolinonitrile]",7.16
8,"Cc1cn2ccc(-c3nc(C#N)ccc3-c3cnc(CC4(F)CC4)o3)cc2n1 [Example 100, 5-(2-((1-fluorocyclopropyl)methyl)oxazol-5-yl)-6-(2-methyl-imidazo[1,2-a]pyridin-7-yl)picolinonitrile]",6.80
9,"Cc1nc2cc(-c3nc(C#N)ccc3-c3cnc(CCC(C)(F)F)o3)ccn2n1 [Example 112, 5-(2-(3,3-difluorobutyl)oxazol-5-yl)-6-(2-methyl-[1,2,4]triazolo [1,5-a]pyridin-7-yl)picolinonitrile]",6.74
10,"CC1(Cc2ncc(-c3ccc(C#N)nc3-c3ccc4cccnc4c3)o2)CCCC1 [Example 7, 5-(2-((1-methyl-cyclopentyl)methyl)-oxazol-5-yl)-6-(quinolin-7-yl)-picolinonitrile]",7.47
11,"FC1(Cc2ncc(-c3cccnc3-c3ccn4ccnc4c3)o2)CCCC1 [Example 78, 2-((1-fluorocyclopentyl)methyl)-5-(2-(imidazo[1,2-a]pyridin-7-yl)pyridin-3-yl) oxazole]",6.98
12,"Cc1nc2cc(-c3ncc(F)cc3-c3cnc(CCC(C)(C)F)o3)ccc2n1C [Example 105, 5-(2-(1,2-dimethyl-1H-benzo[d]imidazol-5-yl)-5-fluoropyridin-3-yl)-2-(3-fluoro-3-methylbutyl)oxazole]",6.70
13,"Cc1cn2ccc(-c3nc(C#N)ccc3-c3cnc(CCC(O)C(F)(F)F)o3)cc2n1 (stereo not shown) [Example 106, 6-(2-methylimidazo[1,2-a]pyridin-7-yl)-5-(2-(4,4,4-trifluoro-3-hydroxybutyl)oxazol-5-yl)picolinonitrile]",6.84
14,"N#Cc1ccc(-c2cnc(CC(F)C3CC3)o2)c(-c2ccc3cccnc3c2)n1 (single isomer, unassigned) [Example 71, 5-(2-(2-cyclopropyl-2-fluoroethyl)oxazol-5-yl)-6-(quinolin-7-yl)picolinonitrile (single compound)]",7.27
15,"Cc1nc2cc(-c3nc(C#N)ccc3-c3cnc(CC(C)(C)C(F)(F)F)o3)ccn2n1 [Example 110, 6-(2-methyl-[1,2,4]triazolo [1,5-a]pyridin-7-yl)-5-(2-(3,3,3-trifluoro-2,2-dimethylpropyl)oxazol-5-yl)picolinonitrile]",6.93
16,"Cc1cn2ccc(-c3nc(C#N)ccc3-c3cnc(CCC(C)(C)F)o3)cc2n1 [Example 116, 5-(2-(3-fluoro-3-methylbutyl)oxazol-5-yl)-6-(2-methylimidazo [1,2-a]pyridin-7-yl)picolinonitrile]",7.33
17,"N#Cc1ccc(-c2cnc(CC3CCC3)o2)c(-c2ccc3cccnc3c2)n1 [Example 29, 5-(2-(cyclobutyl-methyl)oxazol-5-yl)-6-(quinolin-7-yl)-picolinonitrile]",7.52
18,"N#Cc1ccc(-c2cnc(CC3CCCC3)o2)c(-c2ccc3cccnc3c2)n1 [Example 50, 5-(2-(cyclopentylmethyl)oxazol-5-yl)-6-(quinolin-7-yl)picolinonitrile]",7.62
19,"Cc1ccc(-c2cnc(Cc3ccccc3)o2)c(-c2ccc3cccnc3c2)n1 [Example 47, 2-benzyl-5-(6-methyl-2-(quinolin-7-yl)pyridin-3-yl)oxazole]",7.62
20,"CC(C)(C)Cc1ncc(-c2ccc(C(F)F)nc2-c2ccn3ccnc3c2)o1 [Example 19, 5-(6-(difluoro-methyl)-2-(imidazo-[1,2-a]pyridin-7-yl)pyridin-3-yl)-2-neopentyloxazole]",7.14
21,"CC(C)(Cc1ncc(-c2ccc(C#N)nc2-c2ccc3cccnc3c2)o1)C(F)(F)F [Example 23, 6-(quinolin-7-yl)-5-(2-(3,3,3-trifluoro-2,2-dimethylpropyl)-oxazol-5-yl)picolino-nitrile]",6.98
22,"CC1(Cc2ncc(-c3cc4c(nc3-c3cnc5c(c3)C(=O)NC5)C(F)CC4)o2)CCCC1 (single isomer, unassigned) [Example 44, 3-(7-fluoro-3-(2-((1-methylcyclopentyl)methyl)oxazol-5-yl)-6,7-dihydro-5H-cyclopenta[b]pyridin-2-yl)-6,7-dihydro-5H-pyrrolo[3,4-b]pyridin-5-one]",7.62
23,"Cc1nc2cc(-c3nc(C#N)ccc3-c3cnc(CC4CC(F)(F)C4)o3)ccn2n1 [Example 99, 5-(2-((3,3-difluorocyclobutyl)methyl)oxazol-5-yl)-6-(2-methyl-[1,2,4]triazolo[1,5-a]pyridin-7-yl) picolinonitrile]",7.05
24,"N#Cc1ccc(-c2cnc(CC3(C(F)(F)F)CC3)o2)c(-c2ccn3ccnc3c2)n1 [Example 21, 6-(imidazo[1,2-a]-pyridin-7-yl)-5-(2-((1-(trifluoromethyl)-cyclopropyl)methyl)-oxazol-5-yl)picolino-nitrile]",7.09
25,"CN1Cc2ccc(-c3nc(C(F)F)ccc3-c3cnc(CC(C)(C)C)o3)cc2C1=O [Example 15, 6-(6-(difluoro-methyl)-3-(2-neopentyloxazol-5-yl)pyridin-2-yl)-2-methylisoindolin-1-one]",7.10
26,"CC1(Cc2ncc(-c3cc4c(nc3-c3cnc5c(c3)C(=O)NC5)C(F)CC4)o2)CCCC1 (single isomer, unassigned) [Example 45, 3-(7-fluoro-3-(2-((1-methylcyclopentyl)methyl)oxazol-5-yl)-6,7-dihydro-5H-cyclopenta[b]pyridin-2-yl)-6,7-dihydro-5H-pyrrolo[3,4-b]pyridin-5-one]",7.38
27,"N#Cc1ccc(-c2cnc(CC3(F)CCC3)o2)c(-c2ccc3cccnc3c2)n1 [Example 73, 5-(2-((1-fluorocyclobutyl)methyl)oxazol-5-yl)-6-(quinolin-7-yl)picolinonitrile]",7.19
28,"CC(=O)OC1CCc2cc(-c3cnc(CC4(C)CCCC4)o3)c(-c3ccc4ccc(F)nc4c3)nc21 (stereo not shown) [Example 5, 2-(2-fluoroquinolin-7-yl)-3-(2-((1-methylcyclopentyl)-methyl)oxazol-5-yl)-6,7-dihydro-5H-cyclopenta[b]pyridin-7-yl acetate]",6.77
